One compound from patent US8158380B2, “Imaging agents for protein misfolding” (New York University, priority 2007, dated 2012) can be followed below.

This data set concerns the target amyloid plaques (Homo sapiens, UniProt P05067). Description: In vivo staining after intraperitoneal injection in PS/APP Tg mice, sections viewed under fluorescent microscope. Also noted: from tissue; host or cells: brain of PS/APP (APP/PS1) transgenic mice, as sections or in vivo. How it is done:
Methods used: Five groups each of 6-month-old PS/APP Tg mice were tested (which have abundant amyloid plaques) with the compounds of the present invention. The mice received an intraperitoneal injection of compounds 23, 8 or 8F (30 μg/gram). They were sacrificed 24 hours later by ip injection of sodium pentobarbital (150 mg/kg). All animals were transcardially perfused with 20 ml of 0.1 M phosphate buffered saline (pH 7.4) with the addition of heparin followed by 80 ml of 4% formaldehyde in 0.1 M phosphate buffer. The brain was removed from the skull, cryoprotected using increasing concentrations of sucrose, and cut into serial 40-μm-thick coronal section on a freezing microtome (Leica SM2400, Nussloch, Germany). Anti-amyloid β immunohistochemistry was performed on free-floating sections, using our previously published protocols^20-23. In brief, endogenous peroxidase activity was quenched in a bath with 0.3% H2O2 for 30 min. Unspecific staining was blocked by incubation in the blocking solution provided as a part of “Mouse on mouse” kit (Vector Elite staining kit, Vector Laboratories, Burlingame, Calif.). This procedure allows for detection of antigens in murine tissue using mouse mAb avoiding substantial background. Concentration of all mAbs was 0.25 mg/ml with the total concentration of protein in a stock solution of 1 mg/ml as assessed by a Coomasie colorimetric assay. 1:2000 dilution of the stock solution was used. Primary antibodies were applied for 30 minutes followed by thorough washing and the anti-mouse IgG biotinylated secondary antibody according to the kit manufacturer instruction. For fluorescent microscopy sections were incubated with streptavidin conjugated with Cy3 (1:400; Sigma, St. Louis Mo.) whereas for light microscopy they were incubated with avidin-horseradish peroxidase complex and developed using 3,3′-diaminobenzidine kit with nickel ammonium sulfate (Vector Laboratories, Burlingame, Calif.). Following immunostaining, sections were carried on slides, air-dried, and cover-slipped. […]

Where [1] appears, read: AD mice, in vivo injection, sacrificed 24 hours after injection.

Sequence of amyloid plaques (P05067 672-713 limits assumed): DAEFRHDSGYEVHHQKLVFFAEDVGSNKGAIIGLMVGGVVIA

Take `COc1ccc2nc(/C=C/c3ccc(-c4ccc(F)cc4)cc3)ccc2c1` [compound 8F]: under setting [1], the “ability to cross the blood brain barrier” value is listed as “able to cross the blood brain barrier” and the “labeling of amyloid plaques in vivo” value is reported as “label amyloid plaques in vivo”. For the same compound, under “AD model transgenic mice”, the “effectiveness in blood-brain barrier permeability and labeling amyloid plaques in tissue sections and in vivo” value is “most effective”.
